One data set has as its target T1, kappa (KOP) receptor (Rattus norvegicus, UniProt P34975).
T1 construct: Cerep
The data set can be described thus: Receptor binding assay, κ (KOP) (agonist radioligand). The text has this: (§1) Receptor binding assays (Table 1 and FIGS. 1-4)

The target of a further data set is mu opioid receptor (Homo sapiens, UniProt P35372). The data set can be described thus: Cellular functional assay, mu opioid receptor. As to conditions: EC50 values were not determined. Type of data set: cell-based.
Sequence of mu opioid receptor (P35372 whole entry): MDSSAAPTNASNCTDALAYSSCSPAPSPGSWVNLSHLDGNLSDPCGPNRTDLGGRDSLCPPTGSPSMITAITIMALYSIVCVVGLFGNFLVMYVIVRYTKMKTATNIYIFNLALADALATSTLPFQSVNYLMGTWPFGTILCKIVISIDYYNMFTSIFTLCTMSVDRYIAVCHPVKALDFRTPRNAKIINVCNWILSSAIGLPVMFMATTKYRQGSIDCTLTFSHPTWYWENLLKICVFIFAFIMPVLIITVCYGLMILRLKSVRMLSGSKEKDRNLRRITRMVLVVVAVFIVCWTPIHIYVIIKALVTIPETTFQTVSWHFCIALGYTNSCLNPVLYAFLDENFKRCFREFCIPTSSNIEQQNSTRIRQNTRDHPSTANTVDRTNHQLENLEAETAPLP
The target of data set [1] is opioid (non-selective) receptor. In words: Receptor binding assay, opioid (non-selective) (antagonist radioligand).
Source text: as §1

In the next data set the target is T2, human mu (MOP) receptor (Homo sapiens, UniProt P35372).
T2 construct: Cerep
T2 sequence (P35372 whole entry): as above
In words: Receptor binding assay, μ (MOP) (h) (agonist radioligand).
Source text: as §1

The target in data set [2] is T3, human delta 2 (DOP) receptor (Homo sapiens, UniProt P41143).
T3 construct: Cerep
T3 sequence (P41143 whole entry): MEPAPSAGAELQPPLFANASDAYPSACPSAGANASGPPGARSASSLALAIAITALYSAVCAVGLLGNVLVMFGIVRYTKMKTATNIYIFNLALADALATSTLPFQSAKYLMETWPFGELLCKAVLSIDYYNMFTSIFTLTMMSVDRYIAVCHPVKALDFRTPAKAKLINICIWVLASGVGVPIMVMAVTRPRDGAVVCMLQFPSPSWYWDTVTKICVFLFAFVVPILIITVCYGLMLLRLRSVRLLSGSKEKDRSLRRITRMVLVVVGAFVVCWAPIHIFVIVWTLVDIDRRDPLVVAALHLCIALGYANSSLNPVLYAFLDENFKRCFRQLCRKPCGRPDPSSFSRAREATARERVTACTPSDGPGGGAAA
In words: Receptor binding assay, δ2 (DOP) (h) (agonist radioligand).
Source text: as §1

The nature of data set [3]: In vivo pharmacokinetics and brain partition study. As to conditions: rats, fasted, single 1 mg/kg iv dose. The procedure: single 1 mg/kg iv dose administered in rats under fasted conditions plasma concentrations determined at 10 time points (2 mins -24 hrs) brain partition ratio determined at 1 and 4 hours
In a further data set the target is kappa opioid receptor (Homo sapiens, UniProt P41145). In words: Cellular functional assay, kappa opioid receptor. Type of data set: cell-based. Particulars: EC50 values were not determined.
Sequence of kappa opioid receptor (P41145 whole entry): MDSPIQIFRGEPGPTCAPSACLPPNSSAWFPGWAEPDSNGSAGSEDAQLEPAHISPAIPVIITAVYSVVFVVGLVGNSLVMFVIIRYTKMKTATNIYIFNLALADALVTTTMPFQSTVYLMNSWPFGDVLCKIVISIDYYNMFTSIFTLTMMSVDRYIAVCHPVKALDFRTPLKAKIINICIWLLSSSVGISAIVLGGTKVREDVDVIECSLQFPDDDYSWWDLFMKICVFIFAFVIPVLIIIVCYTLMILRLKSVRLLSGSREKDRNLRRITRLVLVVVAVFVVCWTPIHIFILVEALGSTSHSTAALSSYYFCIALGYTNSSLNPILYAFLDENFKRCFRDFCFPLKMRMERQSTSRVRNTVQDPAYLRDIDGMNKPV

Each structure is given as a SMILES string. pIC50, pKi: −log10 of the molar value. “Also recorded” adds a separate entry of the source. Some results are limits rather than exact numbers.

T1 sequence (P34975 whole entry): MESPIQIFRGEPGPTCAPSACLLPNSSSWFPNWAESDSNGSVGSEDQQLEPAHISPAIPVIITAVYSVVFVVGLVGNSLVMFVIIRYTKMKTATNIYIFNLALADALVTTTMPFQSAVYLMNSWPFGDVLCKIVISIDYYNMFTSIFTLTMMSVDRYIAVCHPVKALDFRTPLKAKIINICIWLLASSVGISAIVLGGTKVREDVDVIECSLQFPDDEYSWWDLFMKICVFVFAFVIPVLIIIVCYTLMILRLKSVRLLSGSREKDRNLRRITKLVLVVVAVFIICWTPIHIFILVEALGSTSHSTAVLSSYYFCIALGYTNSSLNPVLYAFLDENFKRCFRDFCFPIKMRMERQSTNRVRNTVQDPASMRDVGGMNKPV

What is called pIC50 is −log10 of the IC50, conventionally taken in molar units. By pKi is commonly meant −log10 of the Ki, conventionally taken in molar units. Read a high pKi as a low Ki. Turning to `CN1CC[C@]23c4c5ccc(F)c4O[C@H]2[C@@H](O)C=C[C@H]3[C@H]1C5` [F-morphine], the pIC50 at kappa (KOP) receptor is 5.07; in data set [1] it was 6.10; on human mu (MOP) receptor, 6.43; in data set [2] it was less than 5.00. The pKi on kappa (KOP) receptor was 5.25; in data set [1], 6.24; at human mu (MOP) receptor, 6.82. Also, the nH at kappa (KOP) receptor (agonist radioligand) is 1.1; on human mu (MOP) receptor (agonist radioligand), 0.9. On mu opioid receptor, the “function at mu opioid receptor” value is on record as “agonist”. For the same compound, the “Delta: binding” value in data set [2] is given as “no observed binding; also recorded: no significant binding up to 10 uM”. The Kp at 4 h in data set [3] (rat, brain/plasma, at 1 and 4 hours, read-out: brain/plasma ratio) is 2 to 3. Further, in data set [3], the “brain partition (in words)” value was “partitions well into the brain”. Further, at kappa opioid receptor, the “function at kappa opioid receptor” value was “agonist”.

The record behind these values is US20120149900A1, “FLUORINE CONTAINING COMPOUNDS AND METHODS OF USE THEREOF” (priority 2009, published 2012).
